Earlier results, collected in US20180271820A1, “METHODS OF TREATING HEART FAILURE” (priority 2015, published 2018).
Where a name gives a salt, the structure may show the parent alone.

What was measured:
[1] = system: patients with symptomatic heart failure and a preserved ejection fraction; conditions: 3,445 patients, TOPCAT trial; cited from earlier work
[2] = system: Ehrlich ascites tumor; conditions: mice; cited from earlier work
[3] = system: HFPEF patients; conditions: RELAX trial; cited from earlier work
[4] = cited from earlier work
[5] = system: patients; conditions: 120 mg, 240 mg, daily, BID, and TID; cited from earlier work
[6] = system: patients with preserved EF; conditions: GISSI-HF, rosuvastatin or placebo; cited from earlier work

## CC(=O)S[C@@H]1CC2=CC(=O)CC[C@]2(C)[C@H]2CC[C@@]3(C)[C@@H](CC[C@@]34CCC(=O)O4)[C@H]12 [spironolactone]
[1]
  incidence of primary composite outcome of death from cardiovascular causes, cardiac arrest, or hospitalization for heart failure: did not significantly reduce

## O=C(O)/C=C/C(=O)O [Fumaric acid]
[2]
  growth of the Ehrlich ascites tumor: inhibits the growth

## CCCc1nn(C)c2c(=O)[nH]c(-c3cc(S(=O)(=O)N4CCN(C)CC4)ccc3OCC)nc12 [sildenafil]
[3]
  primary outcome of functional capacity: did not impact

## COC(=O)/C=C/C(=O)OC [DMF, dimethyl fumarate]
[4]
  aqueous solubility: poor
[5]
  side effect profile across dosages: similar

## CC(C)c1nc(N(C)S(C)(=O)=O)nc(-c2ccc(F)cc2)c1/C=C/[C@@H](O)C[C@@H](O)CC(=O)O [rosuvastatin]
[6]
  benefit in subgroup of patients with preserved EF: no benefit
